These results are taken from patent US4678788A, “N-substituted 2-chloro-7-fluoro-10-piperazino-10,11-dihydrodibenzo (B,F) thiepins and acid addition salts thereof” (SPOFA, Spojene Podniky Pro Zdravotnickou Vyrobu, priority 1985, dated 1987).

SMILES strings stand for the structures. A value given as a limit tells only on which side of the number the result lay.

Series [1] has as its system spontaneous locomotor activity in mice. The experiment in a line: Inhibition of spontaneous locomotor activity in mice. Type of series: in vivo. The conditions noted are these: for times less active than compound A, inhibition of spontaneous locomotor activity: mice, relative to compound A.
Series [2] concerns apomorphine-elicited agitation and stereotypes in rats. Briefly: Antiapomorphine action in rats. The format is in vivo. The conditions noted are these: for effect on apomorphine-elicited agitation / effect on apomorphine-elicited stereotypes: 20 and 50 mg/kg, by 2 h after administration; for antiapomorphine effect: 50 mg/kg, oral.
Series [3] deals with apomorphine emesis in dogs. Briefly: Inhibition of apomorphine emesis in dogs. The format is in vivo.
The test system of series [4] is apomorphine-induced climbing behavior of mice. Briefly: Apomorphine-induced climbing behavior of mice. Type of series: in vivo.
Series [5] relates to homovanillic acid in corpus striatum. Briefly: Homovanillic acid level in corpus striatum of the rat brain. The format is in vivo.
Series [6] deals with homovanillic acid in tuberculum olfactorium. The experiment in a line: Homovanillic acid level in tuberculum olfactorium of the rat brain. Conditions: 3 h after the administration. The format is in vivo.
Series [7] deals with dopamine levels in corpus striatum. Briefly: Dopamine level in corpus striatum of the rat brain. The format is in vivo. The conditions noted are these: for dopamine level, striatum: 20 mg/kg, in words.
Series [8] deals with dopamine levels in tuberculum olfactorium. Briefly: Dopamine level in tuberculum olfactorium of the rat brain. The format is in vivo. The conditions noted are these: 20 mg/kg, in words.
The target in series [9] is T1, dopamine receptors in corpus striatum (Rattus norvegicus, UniProt P61169).
T1 construct: dopamine receptors in the two brain structures; from tissue; host or cells: rat brain, corpus striatum
Briefly: Inhibition of 3H-spiperone binding, corpus striatum.

Series [10] in a line: Solubility in water. Type of series: physicochemical.
Series [11] has as its system mice. Conditions: mouse, in vivo, po.
The nature of series [12]: in vivo. Conditions: mouse, po.
Series [13] deals with rats. The experiment in a line: Cataleptic activity in rats. Conditions: for cataleptic activity: rats, 50 mg/kg, oral.
Series [14] in a line: Acute toxicity in rats (oral). The conditions noted are these: rat, in vivo.
Series [15] can be described thus: Rota-rod test in mice (motor coordination). The conditions noted are these: mouse, po. For orientation: Falling from the rotarod earlier than controls is read as motor impairment.
Series [16] can be described thus: Rota-rod test in rats (motor coordination). Conditions: rat, po.
For series [17], the system named is cataleptogenic effect of perphenazine in rats. Briefly: Potentiation of the cataleptogenic effect of perphenazine in rats. The format is in vivo. The conditions noted are these: 50 mg/kg, oral. The procedure: A further compound of the invention is 1-(2-chloro-7-fluoro-10, 11-dihydrodibenzo (b,f) thiepin-10-yl)-4-(2-(1,3-dioxolan-2-yl)ethyl)piperazine, which also was tested as the methanesulfonate (compound B). This compound and the following ones were likewise administered orally, and the data is calculated per bases.
(§1) The invention further includes 1-(2-chloro-7-fluoro-10, 11-dihydrodibenzo (b,f) thiepin-10-yl)-4-(2-(1,3-dioxan-2-yl) ethyl)piperazine, which is also tested as the methanesulfonate (compound C).

The nature of series [18]: Overall antidopaminergic / neuroleptic activity and pharmacological profile. The conditions noted are these: in words.
Series [19] is described as follows: Acute toxicity in mice, intravenous administration. Conditions: mouse, in vivo. The procedure: as §1
The test system of series [20] is motility of mice. Conditions: Mus musculus, po, read-out: medium effective dose, motility of mice.

T1 sequence (P61169 whole entry): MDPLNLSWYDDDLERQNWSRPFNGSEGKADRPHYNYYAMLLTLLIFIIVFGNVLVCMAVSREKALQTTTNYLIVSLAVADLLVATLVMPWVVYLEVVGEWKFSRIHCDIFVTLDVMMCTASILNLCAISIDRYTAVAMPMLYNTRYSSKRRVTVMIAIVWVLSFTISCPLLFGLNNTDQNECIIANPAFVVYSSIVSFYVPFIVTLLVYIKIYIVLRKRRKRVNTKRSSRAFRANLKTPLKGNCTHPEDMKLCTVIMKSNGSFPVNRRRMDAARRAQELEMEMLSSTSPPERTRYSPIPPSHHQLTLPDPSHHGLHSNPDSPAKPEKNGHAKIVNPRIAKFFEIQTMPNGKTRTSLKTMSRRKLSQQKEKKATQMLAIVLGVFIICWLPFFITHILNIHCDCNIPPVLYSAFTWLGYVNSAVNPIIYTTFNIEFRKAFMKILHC

With `NC(=O)CCN1CCN(C2Cc3cc(Cl)ccc3Sc3cc(F)ccc32)CC1` (stereo not shown) [Compound A], the ED50 is 1.05 mg/kg in [1] (Mus musculus, po, read-out: medium active dose D50, inhibition of spontaneous locomotor activity) and 2.9 mg/kg in [4] (Mus musculus, po, read-out: medium effective dose PD50, apomorphine-induced climbing behavior). In addition, in series [2], the “effect on apomorphine-elicited agitation” value is on record as “significantly inhibits the agitation”. The “effect on apomorphine-elicited stereotypes” value in series [2] is recorded as “does not affect the apomorphine-elicited stereotypes”. In addition, the minimal effective dose came out at 2 mg/kg in series [3] (Canis lupus familiaris, oral, by 4 h after the administration, read-out: threshold activity dose, inhibition of apomorphine emesis); 5 mg/kg in series [5] (Rattus norvegicus, po, 3 h, read-out: threshold dose significantly increasing homovanillic acid concentration, corpus striatum); 2 mg/kg in series [6] (oral, read-out: threshold dose significantly increasing homovanillic acid concentration, tuberculum olfactorium). Moreover, the “inhibition of apomorphine emesis, duration” value in series [3] (within 24 h) is given as “within 24 h the effect disappears”. The “level of homovanillic acid, corpus striatum” value in [5] (rat, 3 h after the administration) is reported as “intensively increases”. The “level of homovanillic acid, tuberculum olfactorium” value in [6] is recorded as “intensively increases”. Moreover, the “dopamine level, striatum” value in series [7] is on record as “does not significantly affect the dopamine levels”. In addition, the “dopamine level, tuberculum olfactorium” value in series [8] was “does not significantly affect the dopamine levels”. For the same molecule, the IC50 in [9] is 49.7 nM. In addition, the solubility in water result in [10] (monomethanesulfonate) is reported as “excellently water-soluble”; in series [10] (neutral maleate) it was “poorly soluble in water”. For the same molecule, the “LD50 on longer evaluation of the toxicity test” value in series [11] is listed as “lower LD50 values”. Further, the LD50 at 48 h in [12] (LD50, female mice, per base) was 316 mg/kg; in [12] (LD50, male mice, per base), 336 mg/kg. In addition, the “cataleptic activity (general statement)” value in series [13] (compounds of the invention, in words) is recorded as “noncataleptic”. Further, the cataleptic activity entry in series [13] is “lacks cataleptic activity”. The molecule also showed an LD50 in series [14] of 654 mg/kg. The TD50 in series [15] stood at 2 mg/kg; in series [16], 19.5 mg/kg.

For the molecule `Fc1ccc2c(c1)Sc1ccc(Cl)cc1CC2N1CCN(CCC2OCCO2)CC1` (stereo not shown) [Compound B, 1-(2-chloro-7-fluoro-10, 11-dihydrodibenzo (b,f)thiepin-10-yl)-4-(2-(1,3-dioxolan-2-yl)ethyl)piperazine], the antiapomorphine effect entry in series [2] was “only a slight indication of antiapomorphine effect”. The “increase of homovanillic acid level in striatum” value (“increase” below) in series [5] (rat, 80 mg/kg, 3 h, oral) stood at 504%. For the same molecule, in series [7] (80 mg/kg, 3 h), the “lowering of dopamine level in striatum” value came out at 25%. In series [17], the “potentiation of the cataleptogenic effect of perphenazine” value is on record as “only mildly potentiates the cataleptogenic effect of perphenazine”. Further, the solubility in water entry in series [10] (monomethanesulfonate) was “readily water-soluble”; in [10] (monomethanesulfonate, listed as Example 3) it was “excellently water-soluble”; in series [10] (neutral maleate) it was “slightly soluble in water”. In addition, the solubility in series [10] (water, monomethanesulfonate, aqueous solution, read-out: concentration of aqueous solutions provided) is more than 100 mg/mL. In series [18], the “pharmacological profile compared with compound A” value is on record as “approximately comparable”. Also, the LD50 in [12] (LD50, mice, per base) came to 350 mg/kg. Besides, the cataleptic activity result in series [13] is “no cataleptic effect”. This molecule also registered a TD50 in series [15] of 3.5 mg/kg.

As for `Fc1ccc2c(c1)Sc1ccc(Cl)cc1CC2N1CCN(CCC2OCCCO2)CC1` (stereo not shown) [Compound C, 1-(2-chloro-7-fluoro-10, 11-dihydrodibenzo (b,f)thiepin-10-yl)-4-(2-(1,3-dioxan-2-yl)ethyl)piperazine], the LD50 was 77.6 mg/kg in series [19] and more than 500 mg/kg in series [12] (LD50, mice, per base). Moreover, the antiapomorphine effect result in [2] was “does not reveal any antiapomorphine effect”. The “increase” value in series [5] (rat, 20 mg/kg, 3 h) was found to be 400%. For the same molecule, in series [7], the “dopamine level, striatum” value is “the dopamine level is not affected”. Besides, the “affinity to dopamine receptors in striatum, release of 3H spiperone” value in series [9] (striatum, in words, compared with clozapine) was “approximately the same as with clozapine”. Also, the “potentiation of the cataleptogenic effect of perphenazine” value in series [17] was “only mildly potentiates the cataleptogenic effect of perphenazine”. Besides, the solubility in water entry in series [10] (monomethanesulfonate) is on record as “excellently water-soluble”; in series [10] (neutral maleate) it was “poorly soluble in water”; in series [10] (neutral maleate, listed as Example 4) it was “only very slightly soluble in water”. The “pharmacological profile compared with compound A” value in series [18] is reported as “approximately comparable”. For the same molecule, in series [13], the cataleptic activity result is “no cataleptic effect”. In series [15], the TD50 amounted to 2.86 mg/kg.

As to `NC(CCN1CCN(C2Cc3cc(Cl)ccc3Sc3cc(F)ccc32)CC1)=NO` (stereo not shown) [Compound D], in series [5] (rat, 80 mg/kg, 3 h, oral), the “increase” value was “more than 300%”. Moreover, the “pharmacological profile compared with compound A” value in series [18] is on record as “approximately comparable”. In addition, the LD50 in [12] amounted to 320 mg/kg. Further, in series [20], the ED50 turned out to be 50 mg/kg.

For `CN(C)CCCN1c2ccccc2Sc2ccc(Cl)cc21` [chlorpromazine, reference compound], the “times less active than compound A, inhibition of spontaneous locomotor activity” value in [1] stood at 5 times. In addition, in series [4] (mice, % of activity of compound A), the “activity relative to compound A, climbing behavior” value is recorded as “approx. 50%”.

For `CN1CCN(C2=Nc3cc(Cl)ccc3Nc3ccccc32)CC1` [clozapine, 8-chloro-11-(4-methylpiperazine)-5H-dibenzo (b,e)-(1,4)diazepine, reference compound], in series [1], the “times less active than compound A, inhibition of spontaneous locomotor activity” value is “approx. 4 times”. Moreover, in series [2], the “effect on apomorphine-elicited agitation” value was “effects neither agitation nor stereotypes” and the “effect on apomorphine-elicited stereotypes” value is on record as “effects neither agitation nor stereotypes”. The “increase” value in series [5] (rat, 20 mg/kg, 3 h) worked out at 200%. Also, in series [7], the “dopamine level, striatum” value is “slightly decreases dopamine levels”. Besides, the “dopamine level, tuberculum olfactorium” value in [8] is on record as “slightly decreases dopamine levels”. The cataleptic activity entry in [13] is “behaves similarly”.

What is called IC50 is the concentration that gives 50% inhibition. By LD50 is commonly meant the dose expected to kill half of the subjects tested. The TD50 is the dose at which the toxic effect under study appears in half of the subjects.
